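In this assay, cells in 96-well plates receive the compound at five concentrations for 48 hours. Endpoints are linearly interpolated between the surrounding concentrations. GI50 is the concentration that inhibits growth by half.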 Activity calls are given as the source filed them. Cut-off read from the data, not from the text of the source: active = GI50 up to about 1.1 µM and inactive = higher.
Experiments:
Test in all cases: NCI anticancer screen, dose series, 48 h
HCT-15 = system: HCT-15
MDA-MB-231 = system: MDA-MB-231
UACC-62 = system: UACC-62
SF-539 = system: SF-539
COLO 205 = system: COLO 205
ACHN = system: ACHN
TK-10 = system: TK-10
SF-268 = system: SF-268
LOX IMVI = system: LOX IMVI
MCF7 = system: MCF7
SK-MEL-2 = system: SK-MEL-2
786-0 = system: 786-0
HL-60 = system: HL-60
NCI-H226 = system: NCI-H226
Hs-578T = system: Hs-578T
UACC-257 = system: UACC-257
KM12 = system: KM12
Malme-3M = system: Malme-3M
OVCAR-3 = system: OVCAR-3
MOLT-4 = system: MOLT-4

`COc1ccc(/C(C)=C2\CCCN(Cc3ccccc3)C2)cc1` was tested, and the GI50 (HCT-15) was 20.3 µM, the GI50 (MDA-MB-231) was 21.4 µM (inactive) and the GI50 (UACC-62) was 19.8 µM (inactive). For the same compound, the GI50 (SF-539) was 15.8 µM (inactive), the GI50 (COLO 205) was 17.5 µM (inactive) and the GI50 (ACHN) was 28.1 µM (inactive). The GI50 (TK-10) was 38.8 µM (inactive), the GI50 (SF-268) was 17.4 µM (inactive) and the GI50 (LOX IMVI) was 16.7 µM (inactive). For the same compound, the GI50 (MCF7) was 19.2 µM (inactive), the GI50 (SK-MEL-2) was 19.1 µM (inactive) and the GI50 (786-0) was 19.2 µM (inactive). The GI50 (HL-60) was 23.2 µM (inactive), the GI50 (NCI-H226) was 21.5 µM (inactive) and the GI50 (Hs-578T) was 13.5 µM (inactive). For the same compound, the GI50 (UACC-257) was 29.2 µM (inactive), the GI50 (KM12) was 17 µM (inactive) and the GI50 (Malme-3M) was 19.2 µM (inactive). The GI50 (OVCAR-3) was 18.6 µM (inactive) and the GI50 (MOLT-4) was 24.4 µM (inactive).

With `COc1ccc(NC(=O)CC(=O)N2N=C(N3CCCCC3)CC2c2ccccc2)cc1` (stereo not given) the GI50 (HCT-15) was over 100 µM, the GI50 (MDA-MB-231) was > 100 µM (inactive) and the GI50 (UACC-62) was > 100 µM (inactive). For the same compound, the GI50 (SF-539) was > 100 µM (inactive), the GI50 (COLO 205) was > 100 µM (inactive) and the GI50 (ACHN) was > 100 µM (inactive). For the same compound, the GI50 (TK-10) was > 100 µM (inactive), the GI50 (SF-268) was > 100 µM (inactive) and the GI50 (LOX IMVI) was > 100 µM (inactive). For the same compound, the GI50 (MCF7) was > 100 µM (inactive), the GI50 (SK-MEL-2) was > 100 µM (inactive) and the GI50 (786-0) was > 100 µM (inactive). The GI50 (HL-60) was > 100 µM (inactive), the GI50 (NCI-H226) was > 100 µM (inactive) and the GI50 (Hs-578T) was > 100 µM (inactive). For the same compound, the GI50 (UACC-257) was > 100 µM (inactive), the GI50 (KM12) was > 100 µM (inactive) and the GI50 (Malme-3M) was > 100 µM (inactive). For the same compound, the GI50 (OVCAR-3) was > 100 µM (inactive) and the GI50 (MOLT-4) was > 100 µM (inactive).

In the case of `CC1C(NNc2ccccc2)Oc2cc3c(cc2C1c1ccccc1O)OCO3` (stereo not given), the GI50 (HCT-15) is reported as 1.7 µM, the GI50 (MDA-MB-231) is reported as 13.4 µM (inactive) and the GI50 (UACC-62) is reported as 1.44 µM (inactive). For the same compound, the GI50 (SF-539) was 2.01 µM (inactive), the GI50 (COLO 205) was 11.3 µM (inactive) and the GI50 (ACHN) was 0.962 µM (active). The GI50 (TK-10) was 4.81 µM (inactive), the GI50 (SF-268) was 12.2 µM (inactive) and the GI50 (LOX IMVI) was 12.5 µM (inactive). For the same compound, the GI50 (MCF7) was 3.94 µM (inactive), the GI50 (SK-MEL-2) was 10.9 µM (inactive) and the GI50 (786-0) was 5.53 µM (inactive). The GI50 (HL-60) was 4.01 µM (inactive), the GI50 (NCI-H226) was 12.8 µM (inactive) and the GI50 (Hs-578T) was 14.3 µM (inactive). For the same compound, the GI50 (UACC-257) was 6.89 µM (inactive), the GI50 (KM12) was 0.741 µM (active) and the GI50 (Malme-3M) was 3.47 µM (inactive). The GI50 (OVCAR-3) was 11.8 µM (inactive) and the GI50 (MOLT-4) was 3.17 µM (inactive).

In the case of `C[C@]12CCC(=O)C=C1CC[C@@H]1[C@@H]2[C@@H](O)C[C@@]2(C)[C@H]1CC[C@]2(O)C(=O)CO` [HYDROCORTISONE], the GI50 (HCT-15) is reported as over 100 µM, the GI50 (MDA-MB-231) is reported as > 100 µM (inactive) and the GI50 (UACC-62) is reported as > 100 µM (inactive). The GI50 (SF-539) was > 100 µM (inactive), the GI50 (COLO 205) was > 100 µM (inactive) and the GI50 (ACHN) was > 100 µM (inactive). For the same compound, the GI50 (TK-10) was > 100 µM (inactive), the GI50 (SF-268) was > 100 µM (inactive) and the GI50 (LOX IMVI) was > 100 µM (inactive). The GI50 (MCF7) was > 100 µM (inactive), the GI50 (SK-MEL-2) was > 100 µM (inactive) and the GI50 (786-0) was > 100 µM (inactive). The GI50 (HL-60) was > 100 µM (inactive), the GI50 (NCI-H226) was > 100 µM (inactive) and the GI50 (Hs-578T) was > 100 µM (inactive). For the same compound, the GI50 (UACC-257) was > 100 µM (inactive), the GI50 (KM12) was > 100 µM (inactive) and the GI50 (Malme-3M) was > 100 µM (inactive). The GI50 (OVCAR-3) was > 100 µM (inactive) and the GI50 (MOLT-4) was > 100 µM (inactive).

— ChEMBL document CHEMBL1201862, “PubChem BioAssay data set” (2004)
